One test has as its system Chlorella sp. ATCC 7516. Description: Algal efficacy testing of dry paint films (modified ASTM 5589, 6-well plates). The format is cell-based. The settings on record: 504 h, 3 weeks, visible algal growth vs blank, pass level ≧75%; for inhibition at 1000 ppm: total conc 1000 ppm in paint. As to the method: (§1) Sample preparation for antimicrobial testing was performed as follows:
(§2) Slurries containing 33% antimicrobial active ingredient (Zoxamide) were post added to a white, acrylic/silicone based outdoor paint free of biocides to give a total active ingredient concentration of 10000 and 1000 ppm respectively. KATHON™ 893T (100% OIT) and ROCIMA™ 200 (20% DCOIT) were post added to a white, acrylic/silicone based outdoor paint free of biocides to give a total active ingredient concentration of 10000 and 1000 ppm respectively. These paints were then diluted with an antimicrobial free acrylic/silicone based paint and mixed to prepare targeted concentrations of antimicrobial compounds for the testing. The total biocides concentrations tested were 125, 250, 500, 1000, 2000 and 5000 ppm. After biocides addition or dilution, the paints were mixed 90 seconds with the horse power shaker (AXEL 75M3372/Agitateur SO-10MI) until uniformity was achieved. Paints containing different antimicrobial compounds at the same levels were mixed together in order to obtain the desired ratio of antimicrobial compounds. After one day, the paints were applied to Schleicher & Schuell filter paper at 280μm wet film thickness and dried for 3 days at room temperature avoiding direct exposure to sunlight. Square discs (1.6 cm×1.6 cm) were cut out from each panel and were used as the substrate for algal efficacy tests. This sample size allowed for an agar border when the sample disc was placed into the well of the test plate.
(§3) Algal efficacy was tested according to modified ASTM 5589 which is a standard accelerated test method for determining resistance of various coatings (including paints) to algal defacement. To accommodate for high-throughput screening, this method was scaled down from petri dishes to 6-well plates. Bold Modified Basal Freshwater Nutrient Solution was used as growth medium. A single coated filter paper coupon was placed with a pair of sterile forceps at the center of the agar plug (on top) with the painted surface facing upwards. Algal inoculums were prepared by mixing equal concentrations (1×10^6 cfu/ml) and equal volumes of exponentially growing algae cultures.
(§4) Each well that contains a tested coupon was inoculated with 1750 μl of algal suspensions (1×10^6 cfu/ml) making sure that the whole surface (paint film as well as the agar surrounding it) was evenly covered. The plates were incubated at room temp (21° C.-25° C.) with cyclic exposure to light and dark phases, for a period of three weeks.
(§5) At the end of the three week incubation period, the samples were scored for percent inhibition regarding visible algal growth compared to the blank sample (0% inhibition).
(§6) The Synergy Index calculation was performed as follows.
(§7) The SI is calculated based on F. C. Kull et.
(§8) SI value of <1 in the formula indicates a synergism of the blended biocides exists.
(§9) The minimal targeted inhibition was set at 75%, meaning a coupon with at least 75% algal growth inhibition was considered as a pass.

In test [1] the test system is Stichococcus bacillaris SAG 379-1a / CCAP 379/1a. Described as above. The format is cell-based. The settings on record: 504 h, 3 weeks, visible algal growth vs blank, pass level ≧75%. As to the method:
as §1, §2, §3, §4, §5, §6, §7, §8, §9

The record followed here is patent publication US20150296786A1, “SYNERGISTIC COMBINATION OF A ZOXAMIDE COMPOUND AND ONE OF DCOIT OR OIT FOR DRY FILM PROTECTION” (ROHM AND HAAS COMPANY, priority 2012, published 2015).

The structures appear in SMILES notation.

For orientation: inhibition means the percentage by which the read-out fell short of the control.

Consider `CCCCCCCCn1sc(Cl)c(Cl)c1=O` [DCOIT, 4,5-dichloro-2-n-octyl-4-isothiazolin-3-one], for which the inhibition at 1000 ppm (in the test with Chlorella sp. ATCC 7516; in test [1] (total conc 1000 ppm in paint)) was 85% throughout. On to `CCCCCCCCn1sccc1=O` [OIT, 2-n-octyl-4-isothiazolin-3-one], for which the inhibition at 1000 ppm in the test on Chlorella sp. ATCC 7516 came to 95%. On to `CCC(C)(NC(=O)c1cc(Cl)c(C)c(Cl)c1)C(=O)CCl` (centres unmarked) [Zoxamide], for which the inhibition at 5000 ppm with Chlorella sp. ATCC 7516 (total conc 5000 ppm in paint) worked out at 60%; in test [1] (total conc 5000 ppm in paint) it was 45%.
